Laboratory results: the supplement of paper PMC10307832

Tests used:
Experiment in all cases: relative viability (nuclei count vs DMSO), 5 days (fraction); higher = more cells survive
NCI-H1944 = tested on: NCI-H1944
How it was run: (§1)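 Relative viability is defined as nuclei in treated wells over nuclei in vehicle wells. Duplicate plates were run and medians reported. Lung cancer cell lines in 1536-well plates were dosed by pin tool one day after seeding, with one drug or with a fixed anchor-drug dose plus five library-drug doses (not always all listed) in √10 steps, and nuclei were counted after 5 days.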

SK-MES-1 = tested on: SK-MES-1
How it was run: as §1

NCI-H1734 = tested on: NCI-H1734
How it was run: as §1

NCI-H358 = tested on: NCI-H358
How it was run: as §1

EMC-BAC-2 = tested on: EMC-BAC-2
How it was run: as §1

NCI-H2087 = tested on: NCI-H2087
How it was run: as §1

NCI-H1792 = tested on: NCI-H1792
How it was run: as §1

LK-2 = tested on: LK-2
How it was run: as §1

HCC-78 = tested on: HCC-78
How it was run: as §1

ChaGo-K-1 = tested on: ChaGo-K-1
How it was run: as §1

EPLC-272H = tested on: EPLC-272H
How it was run: as §1

SW 1573 = tested on: SW 1573
How it was run: as §1

LU99A = tested on: LU99A
How it was run: as §1

HCC-827 = tested on: HCC-827
How it was run: as §1

COR-L 105 = tested on: COR-L 105
How it was run: as §1

LCLC-97TM1 = tested on: LCLC-97TM1
How it was run: as §1

LOU-NH91 = tested on: LOU-NH91
How it was run: as §1

NCI-H727 = tested on: NCI-H727
How it was run: as §1

NCI-H2126 = tested on: NCI-H2126
How it was run: as §1

NCI-H1650 = tested on: NCI-H1650
How it was run: as §1

BEN = tested on: BEN
How it was run: as §1

EKVX = tested on: EKVX
How it was run: as §1

RERF-LC-KJ = tested on: RERF-LC-KJ
How it was run: as §1

O=C(O)CCCCC(CCSCc1ccccc1)SCc1ccccc1 (centres undefined) [CPI-613] + Cc1nc(Nc2ncc(C(=O)Nc3c(C)cccc3Cl)s2)cc(N2CCN(CCO)CC2)n1 [Dasatinib] (partner 0.075 µM) was tested, and the relative viability (NCI-H1944; first compound 5 µM) was 0.212, the relative viability (NCI-H1944; first compound 15.81 µM) was 0.219 and the relative viability (NCI-H1944; first compound 50 µM) was 0.188. For the same molecule, the relative viability (NCI-H1944; first compound 158.11 µM) was 0.19, the relative viability (NCI-H1944; first compound 500 µM) was 0.0792 and the relative viability (SK-MES-1; first compound 5 µM) was 0.393. The relative viability (SK-MES-1; first compound 15.81 µM) was 0.428, the relative viability (SK-MES-1; first compound 50 µM) was 0.432 and the relative viability (SK-MES-1; first compound 158.11 µM) was 0.125. It also gave a relative viability (SK-MES-1; first compound 500 µM) of 0.0807, a relative viability (NCI-H1734; first compound 5 µM) of 0.411 and a relative viability (NCI-H1734; first compound 15.81 µM) of 0.47. The relative viability (NCI-H1734; first compound 50 µM) was 0.413, the relative viability (NCI-H1734; first compound 158.11 µM) was 0.301 and the relative viability (NCI-H1734; first compound 500 µM) was 0.105. For the same molecule, the relative viability (NCI-H358; first compound 15.81 µM) was 0.145, the relative viability (NCI-H358; first compound 50 µM) was 0.146 and the relative viability (NCI-H358; first compound 158.11 µM) was 0.157. For the same molecule, the relative viability (NCI-H358; first compound 500 µM) was 0.0248, the relative viability (EMC-BAC-2; first compound 5 µM) was 0.303 and the relative viability (EMC-BAC-2; first compound 15.81 µM) was 0.187. It also gave a relative viability (EMC-BAC-2; first compound 50 µM) of 0.309, a relative viability (EMC-BAC-2; first compound 158.11 µM) of 0.206 and a relative viability (EMC-BAC-2; first compound 500 µM) of 0.0369. It also gave a relative viability (NCI-H2087; first compound 5 µM) of 0.809, a relative viability (NCI-H2087; first compound 15.81 µM) of 0.886 and a relative viability (NCI-H2087; first compound 50 µM) of 0.792. For the same molecule, the relative viability (NCI-H2087; first compound 158.11 µM) was 0.196, the relative viability (NCI-H2087; first compound 500 µM) was 0.023 and the relative viability (NCI-H1792; first compound 5 µM) was 0.772. The relative viability (NCI-H1792; first compound 15.81 µM) was 0.748, the relative viability (NCI-H1792; first compound 50 µM) was 0.789 and the relative viability (NCI-H1792; first compound 158.11 µM) was 0.669. For the same molecule, the relative viability (NCI-H1792; first compound 500 µM) was 0.766, the relative viability (LK-2; first compound 5 µM) was 0.241 and the relative viability (LK-2; first compound 15.81 µM) was 0.279. It also gave a relative viability (LK-2; first compound 50 µM) of 0.252, a relative viability (LK-2; first compound 158.11 µM) of 0.254 and a relative viability (LK-2; first compound 500 µM) of 0.195. For the same molecule, the relative viability (HCC-78; first compound 5 µM) was 0.358, the relative viability (HCC-78; first compound 15.81 µM) was 0.272 and the relative viability (HCC-78; first compound 50 µM) was 0.408. It also gave a relative viability (HCC-78; first compound 158.11 µM) of 0.339, a relative viability (HCC-78; first compound 500 µM) of 0.342 and a relative viability (ChaGo-K-1; first compound 5 µM) of 0.583. It also gave a relative viability (ChaGo-K-1; first compound 15.81 µM) of 0.594, a relative viability (ChaGo-K-1; first compound 50 µM) of 0.594 and a relative viability (ChaGo-K-1; first compound 158.11 µM) of 0.336. For the same molecule, the relative viability (ChaGo-K-1; first compound 500 µM) was 0.146, the relative viability (EPLC-272H; first compound 5 µM) was 0.317 and the relative viability (EPLC-272H; first compound 15.81 µM) was 0.334. For the same molecule, the relative viability (EPLC-272H; first compound 50 µM) was 0.449, the relative viability (EPLC-272H; first compound 158.11 µM) was 0.219 and the relative viability (EPLC-272H; first compound 500 µM) was 0.0109. For the same molecule, the relative viability (SW 1573; first compound 5 µM) was 0.452, the relative viability (SW 1573; first compound 15.81 µM) was 0.503 and the relative viability (SW 1573; first compound 50 µM) was 0.467. It also gave a relative viability (SW 1573; first compound 158.11 µM) of 0.118, a relative viability (SW 1573; first compound 500 µM) of 0.0385 and a relative viability (LU99A; first compound 5 µM) of 0.551. It also gave a relative viability (LU99A; first compound 15.81 µM) of 0.577, a relative viability (LU99A; first compound 50 µM) of 0.424 and a relative viability (LU99A; first compound 158.11 µM) of 0.426. The relative viability (LU99A; first compound 500 µM) was 0.0381, the relative viability (HCC-827; first compound 5 µM) was 0.262 and the relative viability (HCC-827; first compound 15.81 µM) was 0.295. The relative viability (HCC-827; first compound 50 µM) was 0.405, the relative viability (HCC-827; first compound 158.11 µM) was 0.315 and the relative viability (HCC-827; first compound 500 µM) was 0.353. It also gave a relative viability (COR-L 105; first compound 5 µM) of 0.386, a relative viability (COR-L 105; first compound 15.81 µM) of 0.285 and a relative viability (COR-L 105; first compound 50 µM) of 0.307. The relative viability (COR-L 105; first compound 158.11 µM) was 0.278, the relative viability (COR-L 105; first compound 500 µM) was 0.131 and the relative viability (LCLC-97TM1; first compound 5 µM) was 0.843. For the same molecule, the relative viability (LCLC-97TM1; first compound 15.81 µM) was 0.901, the relative viability (LCLC-97TM1; first compound 50 µM) was 0.791 and the relative viability (LCLC-97TM1; first compound 158.11 µM) was 0.634. The relative viability (LCLC-97TM1; first compound 500 µM) was 0.0334, the relative viability (LOU-NH91; first compound 5 µM) was 0.564 and the relative viability (LOU-NH91; first compound 15.81 µM) was 0.475. It also gave a relative viability (LOU-NH91; first compound 50 µM) of 0.532, a relative viability (LOU-NH91; first compound 158.11 µM) of 0.481 and a relative viability (LOU-NH91; first compound 500 µM) of 0.499. It also gave a relative viability (NCI-H727; first compound 5 µM) of 0.305, a relative viability (NCI-H727; first compound 15.81 µM) of 0.35 and a relative viability (NCI-H727; first compound 50 µM) of 0.329. For the same molecule, the relative viability (NCI-H727; first compound 158.11 µM) was 0.275, the relative viability (NCI-H727; first compound 500 µM) was 0.138 and the relative viability (NCI-H2126; first compound 5 µM) was 0.561. The relative viability (NCI-H2126; first compound 15.81 µM) was 0.58, the relative viability (NCI-H2126; first compound 50 µM) was 0.605 and the relative viability (NCI-H2126; first compound 158.11 µM) was 0.331. It also gave a relative viability (NCI-H2126; first compound 500 µM) of 0.107, a relative viability (NCI-H1650; first compound 5 µM) of 0.353 and a relative viability (NCI-H1650; first compound 15.81 µM) of 0.285. For the same molecule, the relative viability (NCI-H1650; first compound 50 µM) was 0.312, the relative viability (NCI-H1650; first compound 158.11 µM) was 0.082 and the relative viability (NCI-H1650; first compound 500 µM) was 0.0164. It also gave a relative viability (BEN; first compound 5 µM) of 0.341, a relative viability (BEN; first compound 15.81 µM) of 0.293 and a relative viability (BEN; first compound 50 µM) of 0.293. It also gave a relative viability (BEN; first compound 158.11 µM) of 0.267, a relative viability (BEN; first compound 500 µM) of 0.279 and a relative viability (EKVX; first compound 5 µM) of 0.561. It also gave a relative viability (EKVX; first compound 15.81 µM) of 0.482, a relative viability (EKVX; first compound 50 µM) of 0.565 and a relative viability (EKVX; first compound 158.11 µM) of 0.466. The relative viability (EKVX; first compound 500 µM) was 0.517, the relative viability (RERF-LC-KJ; first compound 5 µM) was 0.784 and the relative viability (RERF-LC-KJ; first compound 15.81 µM) was 0.754. It also gave a relative viability (RERF-LC-KJ; first compound 50 µM) of 0.766, a relative viability (RERF-LC-KJ; first compound 158.11 µM) of 0.198 and a relative viability (RERF-LC-KJ; first compound 500 µM) of 0.123.
